Assay results from US20180185370A1, “PYRAZINOQUINAZOLINONE DERIVATIVES WITH ANTIBACTERIAL ACTIVITY, METHODS AND USES THEREOF” (UNIVERSIDADE DO PORTO, priority 2015, published 2018).
In brackets after ≈: the same amount, converted by molar mass.

Tests used:
[1] = tested on: S. aureus ATCC 25923, E. faecalis ATCC 29212, S. aureus B1 and E. faecalis W1; test: Inhibition of biofilm formation, crystal violet assay; type: cell-based; conditions: for biofilm formation (biomass, crystal violet): 24 h
Experimental: The efficacy of neofiscalin A was also evaluated in hampering the biofilm formation. Neofiscalin A, in particular, at concentrations of 2×MIC, MIC, ½×MIC and ¼×MIC was added to bacterial suspensions of 1×10^6 CFU/ml in Tryptic Soy Broth (TSB—BioKar diagnostics, Allonne, France) of S. aureus ATCC 25923, E. faecalis ATCC 29212, S. aureus B1 and E. faecalis W1. Bacterial suspensions in absence of the compound were used as controls. Biofilm formation was induced, in particular, in 96-well flat-bottomed microtiter plates (200 μL/well) for 24 h at 37° C. After that time, biofilm biomass was quantified through the crystal violet assay as follows: the planktonic phase was discharged, then the biofilm was stained with 0.5% crystal violet for 5 min, rinsed with water, air dried and eluted with acetic acid 33% (v/v). The optical density was measured at 595 nm (0D595) using a microplate reader (iMark™ microplate absorbance reader, Bio-Rad Laboratories, Hercules, Calif., USA). Two independent experiments were performed in triplicate for each experimental condition. The statistical significance of the difference between biofilm controls and biofilms in the presence of different concentrations of compounds was evaluated using Student's t test. In both cases, probability levels <0.05 were considered statistically significant. Additionally, a microscopic visualization of the biofilms of S. aureus B1 and E. faecalis W1 was performed, in particular, using the Live/Dead BacLight viability kit (Life Technologies—Molecular Probes, Carlsbad, Calif., USA). Biofilms were formed, in particular, in 35-mm diameter polystyrene plates using TSB (control) and TSB supplemented with the MIC or ¼×MIC of neofiscalin A. After 24 h at 37° C., the planktonic phase was removed from each plate and the biofilms were washed with PBS, stained with the appropriate mixture of SYTO 9 and propidium iodide stains and incubated for 20 min at room temperature, in particular 20-25° C., in the dark; then, biofilms were rinsed and examined under a fluorescence microscope (BX41 Microscope, Olympus America Inc., Center Valley, Pa., USA). Images were recorded at an emission wavelength of 500 nm for SYTO 9 (green fluorescence) and of 635 nm for propidium iodide (red fluorescence).

P. aeruginosa ATCC 27853 = test: Antibacterial susceptibility testing, broth microdilution (MIC); type: cell-based, Pseudomonas aeruginosa
Experimental: (§1) Bacterial strains and growth conditions. Five reference strains, Staphylococcus aureus ATCC 25923, Bacillus subtilis ATCC 6633, E. faecalis ATCC 29212, Escherichia coli ATCC 25922 and Pseudomonas aeruginosa ATCC 27853, and three multidrug-resistant isolates from environment, S. aureus B1 (a MRSA isolated from public buses), Enterococcus faecalis W1 (a VRE isolated from river water) and E. coli G1 (isolated from seagull feces) were used. Bacteria were grown overnight at 37° C. in Mueller-Hinton agar (MH—BioKar diagnostics, Allonne, France) prior to obtain be used in the subsequently described bioassays.
(§2) Antibacterial susceptibility testing. The minimum inhibitory concentration (MIC) values of the compounds of FIGS. 1D, 1E, 1G, 1H (equation i-iv) and 11 (equations v-x) were determined, in particular, by a broth microdilution technique, following the recommendations of the Clinical and Laboratory Standards Institute. Stock solutions of 10 mg/ml in DMSO were used to prepare in-test concentrations ranging from 2 to 256 μg/ml. Ciprofloxacin in the concentration range from 0.03125 to 16 μg/ml was used, in particular, as control drug in the experiment. The MIC was defined as the lowest concentration of compound that has inhibited the visible growth. The minimum bactericidal concentration (MBC) was determined by spreading on MH plates, 10 μL collected from the wells corresponding to the MIC and to higher concentrations, with further incubation for 24 h at 37° C.; the lowest concentration at which no growth occurred on MH was defined as the MBC.

B. subtilis ATCC 6633 = test: Antibacterial susceptibility testing, broth microdilution (MIC/MBC); type: cell-based, Bacillus subtilis
Experimental: as §1, §2

[2] = tested on: S. aureus and E. faecalis strains; test: Antibacterial susceptibility testing; type: cell-based
Experimental: as §1, §2

[3] = tested on: S. aureus B1 and E. faecalis W1; test: Microscopic visualization of biofilms, Live/Dead staining; type: cell-based; conditions: 24 h
Experimental: The efficacy of neofiscalin A was also evaluated in hampering the biofilm formation. Neofiscalin A, in particular, at concentrations of 2×MIC, MIC, ½×MIC and ¼×MIC was added to bacterial suspensions of 1×10^6 CFU/ml in Tryptic Soy Broth (TSB—BioKar diagnostics, Allonne, France) of S. aureus ATCC 25923, E. faecalis ATCC 29212, S. aureus B1 and E. faecalis W1. Bacterial suspensions in absence of the compound were used as controls. Biofilm formation was induced, in particular, in 96-well flat-bottomed microtiter plates (200 μL/well) for 24 h at 37° C. After that time, biofilm biomass was quantified through the crystal violet assay as follows: the planktonic phase was discharged, then the biofilm was stained with 0.5% crystal violet for 5 min, rinsed with water, air dried and eluted with acetic acid 33% (v/v). The optical density was measured at 595 nm (0D595) using a microplate reader (iMark™ microplate absorbance reader, Bio-Rad Laboratories, Hercules, Calif., USA). Two independent experiments were performed in triplicate for each experimental condition. The statistical significance of the difference between biofilm controls and biofilms in the presence of different concentrations of compounds was evaluated using Student's t test. […] Images were recorded at an emission wavelength of 500 nm for SYTO 9 (green fluorescence) and of 635 nm for propidium iodide (red fluorescence).

S. aureus B1 [4] = test: Biofilm metabolic activity after treatment, MTT; type: cell-based, Staphylococcus aureus; conditions: 24-h biofilms of S. aureus B1 treated for 24 h with 200 μg/ml
Experimental: (§3) Evaluation of the biofilm metabolic activity after treatment with different concentrations of neofiscalin A. Twenty four-hours biofilms of S. aureus B1 and E. faecalis W1 formed as above described were subsequently treated with high concentrations of neofiscalin A, in particular up to 25×MIC. After 24 h of incubation at 37° C., the bacterial metabolic activity of biofilms was quantified using the 3-(4,5-dimethylthiazole-2-yl)-2,5-diphenyl tetrazolium bromide (MTT, Sigma-Aldrich, St Louis, USA). MTT is used to assess cell viability as a function of redox potential. Actively respiring cells convert the water-soluble MU to an insoluble purple formazan. The formazan is then solubilized and its concentration determined by optical density. In this assay, biofilms were treated with MU (0.5 mg/ml) for 2 h at 37° C. in the dark. DMSO was used to extract the formazan dye product and then the absorbance at 550 nm was measured.

S. aureus B1 (MRSA) = test: Antibacterial susceptibility testing, broth microdilution (MIC/MBC); type: cell-based, Staphylococcus aureus; conditions: S. aureus B1 (MRSA)
Experimental: as §1, §2

S. aureus ATCC 25923 = test: as above; type: cell-based, Staphylococcus aureus
Experimental: as §1, §2

E. faecalis W1 [5] = test: Biofilm metabolic activity after treatment, MTT; type: cell-based, Enterococcus faecalis; conditions: 24-h biofilms of E. faecalis W1 treated for 24 h with 200 μg/ml
Experimental: as §3

E. coli ATCC 25922 = test: Antibacterial susceptibility testing, broth microdilution (MIC); type: cell-based, Escherichia coli
Experimental: as §1, §2

E. faecalis W1 [6] = test: Biofilm inhibitory and biofilm eradication concentrations on 24-h mature biofilms; type: cell-based, Enterococcus faecalis
Experimental: (§4) Determination of neofiscalin A biofilm inhibitory and biofilm eradication concentrations. The efficacy of neofiscalin A on 24-h mature biofilms of S. aureus B1 and E. faecalis W1 was also evaluated, in particular, by determining the BIC and the BEC. […] The optical density at 595 nm was measured at time 0 and after incubation for 24 h at 37° C. The BIC was determined as the lowest concentration of the compound inhibiting growth in the supernatant fluid, confirmed by no increase in the optical density compared with the initial reading. The BEC was determined as the lowest concentration that prevented regrowth of biofilm cells on tryptic soy agar plates.

S. aureus B1 [7] = test: as above; type: cell-based, Staphylococcus aureus
Experimental: as §4

E. faecalis ATCC 29212 = test: Antibacterial susceptibility testing, broth microdilution (MIC/MBC); type: cell-based, Enterococcus faecalis
Experimental: as §1, §2

E. faecalis W1 (VRE) = test: as above; type: cell-based, Enterococcus faecalis; conditions: E. faecalis W1 (VRE)
Experimental: as §1, §2

CC(C)[C@@H]1NC(=O)[C@@H](C[C@]2(O)c3ccccc3N3C(=O)[C@@H](C)N[C@H]32)n2c1nc1ccccc1c2=O [FIG. 1I (eq. ix), neofiscalin A]
biofilm formation (biomass, crystal violet) ([1]; 2×MIC and MIC): none of the strains was able to form a biofilm
biofilm formation ([1]; MRSA and VRE strains): inhibit the biofilm formation
biofilm formation (biomass, crystal violet) ([1]; ¼×MIC): allowed the formation of a larger biofilm, but smaller than that observed in the control group
biofilm formation (biomass, crystal violet) ([1]; ½×MIC): the strains did not succeed in forming much biofilm
Minimum inhibitory concentration-MIC (P. aeruginosa ATCC 27853): >256 µg/mL
Minimum bactericidal concentration-MBC (B. subtilis ATCC 6633): >256 µg/mL
Minimum inhibitory concentration-MIC (B. subtilis ATCC 6633): 128 µg/mL (≈ 270 µM)
MIC value ([2]; S. aureus and E. faecalis strains, including multidrug-resistant isolates (MRSA, VRE)): 8 µg/mL (≈ 16.9 µM)
MBC relative to the MIC ([2]; Table 3 versus Table 2): usually four times higher than the MIC
antibacterial activity ([2]; reference strains and multidrug-resistant isolates, highest concentration tested 256 μg/ml): presented antibacterial activity against Gram-positive bacteria
biofilm formation (Live/Dead microscopy) ([3]; at the MIC): no biofilm was produced
biofilm formation (Live/Dead microscopy) ([3]; ¼×MIC): a biofilm was formed (FIG. 4C), though it was not as large as in the control
reduction of metabolic activity of biofilm (MTT) (S. aureus B1 [4]): ~50%
Minimum bactericidal concentration-MBC (S. aureus B1 (MRSA)): 32 µg/mL (≈ 67.6 µM)
Minimum inhibitory concentration-MIC (S. aureus B1 (MRSA)): 8 µg/mL (≈ 16.9 µM)
Minimum bactericidal concentration-MBC (S. aureus ATCC 25923): 16 µg/mL (≈ 33.8 µM)
Minimum inhibitory concentration-MIC (S. aureus ATCC 25923): 8 µg/mL (≈ 16.9 µM)
reduction of metabolic activity of biofilm (MTT) (E. faecalis W1 [5]): ~50%
Minimum inhibitory concentration-MIC (E. coli ATCC 25922): >256 µg/mL
biofilm inhibitory concentration (BIC) (E. faecalis W1 [6]; 24-h biofilms of E. faecalis W1 (VRE)): 80 µg/mL
biofilm eradication concentration (BEC) (E. faecalis W1 [6]; 24-h biofilms of E. faecalis W1, higher than 25×MIC): > 200 µg/mL
biofilm inhibitory concentration (BIC) (S. aureus B1 [7]; 24-h biofilms of S. aureus B1 (MRSA)): 96 µg/mL
biofilm eradication concentration (BEC) (S. aureus B1 [7]; 24-h biofilms of S. aureus B1, higher than 25×MIC): > 200 µg/mL
Minimum bactericidal concentration-MBC (E. faecalis ATCC 29212): 32 µg/mL (≈ 67.6 µM)
Minimum inhibitory concentration-MIC (E. faecalis ATCC 29212): 8 µg/mL (≈ 16.9 µM)
Minimum bactericidal concentration-MBC (E. faecalis W1 (VRE)): 32 µg/mL (≈ 67.6 µM)
Minimum inhibitory concentration-MIC (E. faecalis W1 (VRE)): 8 µg/mL (≈ 16.9 µM)
